Experiments:
Type in all cases: cell-based
[1] = target: T1, chimeric protein PPARα-Gal4 (Homo sapiens, UniProt Q07869); assay: PPAR activation, Gal4 chimera luciferase reporter gene test in co-transfected CV-1 cells; settings: 50 μM, CV-1 cells (monkey kidney cells), 18 hours contact
T1 construct: Gal4 (fusion partner); expressed in transfected cells; host or cells: CV-1 cells (monkey kidney cells)
T1 sequence (Q07869 239-466 limits assumed): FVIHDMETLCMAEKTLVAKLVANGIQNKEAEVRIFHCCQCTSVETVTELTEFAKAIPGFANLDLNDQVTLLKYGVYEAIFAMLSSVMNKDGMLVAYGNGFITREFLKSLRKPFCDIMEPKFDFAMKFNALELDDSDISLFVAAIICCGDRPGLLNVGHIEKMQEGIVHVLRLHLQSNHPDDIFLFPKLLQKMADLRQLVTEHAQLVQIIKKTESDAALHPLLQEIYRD
Protocol: (§1) The measurement of the PPAR activation was performed according to a technique described by Lehmann et al. (J. Biol. Chem., 270, (1995), 12953-12956).
(§2) CV-1 cells (monkey kidney cells) are co-transfected with an expression vector for the chimeric proteins PPARα-Gal4 or PPARγ-Gal4 and with a “reporter” plasmid that allows the expression of the luciferase gene placed under the control of a promoter containing Gal4 response elements.
(§3) The cells are plated into 96-well microplates and co-transfected using a commercial reagent with the reporter plasmid (pG5-tk-pGL3) and the expression vector for the chimeric protein ([…]). After incubating for 4 hours, whole culture medium (comprising 10% foetal calf serum) is added to the wells. After 24 hours, the medium is removed and replaced with whole medium comprising the test products (50 μM final). The products are left in contact with the cells for 18 hours. The cells are then lysed and the luciferase activity is measured using a luminometer. A PPAR activation factor can then be calculated by means of activation of the expression of the reporter gene induced by the product (relative to the control cells that have not received any product).

[2] = tested on: chimeric protein PPARγ-Gal4; assay: as above; settings: 50 μM, CV-1 cells (monkey kidney cells), 18 hours contact
Protocol: as §1, §2, §3

Gal4 alone = assay: Control: luciferase reporter test with vector expressing Gal4 alone (no PPAR ligand binding domain); settings: CV-1 cells; in the presence of the product
Protocol: CV-1 cells (monkey kidney cells) are co-transfected with an expression vector for the chimeric proteins PPARα-Gal4 or PPARγ-Gal4 and with a “reporter” plasmid that allows the expression of the luciferase gene placed under the control of a promoter containing Gal4 response elements. The cells are plated into 96-well microplates and co-transfected using a commercial reagent with the reporter plasmid (pG5-tk-pGL3) and the expression vector for the chimeric protein ([…]). After incubating for 4 hours, whole culture medium (comprising 10% foetal calf serum) is added to the wells. After 24 hours, the medium is removed and replaced with whole medium comprising the test products (50 μM final). The products are left in contact with the cells for 18 hours. The cells are then lysed and the luciferase activity is measured using a luminometer. A PPAR activation factor can then be calculated by means of activation of the expression of the reporter gene induced by the product (relative to the control cells that have not received any product). [drawing 12] at a concentration of 50 μM, activates the chimeric protein PPARα-Gal-4 by a factor of 2.3, and the chimeric protein […] by a factor of 6.4. In the absence of the binding domain for the PPAR α or γ ligand (vector expressing Gal4 alone), the luciferase activity measured in the presence of this product is zero.

- activation factor of the chimeric protein PPARα-Gal-4 (reporter gene expression relative to control cells) [1]: 2.3
- luciferase activity in the absence of the binding domain for the PPAR α or γ ligand (vector expressing Gal4 alone) (Gal4 alone): zero
Compound: CCOC(=O)C(/C=C/c1ccccc1)Oc1ccccc1 (stereo not drawn)
- activation factor of the chimeric protein PPARα-Gal4 (second mention; reporter gene expression relative to control cells) [2]: 6.4

From US8247448B2, “Butenoic acid derivatives, processes for the preparation thereof, pharmaceutical compositions comprising them, and use for the treatment of dyslipidaemia, atherosclerosis and diabetes” (Merck Patent GmbH, priority 2003, dated 2012)
